We go through one molecule from US20030079241A1, “Premalignant, serially-transplantable breast tissue lines and uses thereof” (priority 2001, published 2003).

For this assay, the system named is HPO line A. In words: Effect of tamoxifen on tumor development in mice with bilateral implants of HPO line A. Particulars: mice receiving bilateral implants of HPO line A; after 15 weeks; all control vehicle mice developed bilateral tumors. The assay is classed as in vivo. The method, then:
The instant invention also provides a method of using the above described premalignant serially-transplantable, hyperplastic outgrowth (HPO) breast tissue lines to screen for new chemopreventative agents against breast cancer. The serially-transplantable breast tissue lines are implanted into the inguinal mammary fat pads of syngeneic, non-transgenic recipient mice. Putative chemopreventative agents are administered to a subset of the implanted mice.
Breast tissue lines A, B, C, D, and E from zone 4 all express high levels of estrogen receptor, which is also expressed in human premalignant breast cells. This is important for testing chemopreventive agents that rely on this receptor. Moreover, the effects of tamoxifen on the development of tumors in mice receiving bilateral implants of HPO line A were examined.

Consider `CC/C(=C(\c1ccccc1)c1ccc(OCCN(C)C)cc1)c1ccccc1` [tamoxifen], for which the development of tumors entry was “None of the mice receiving tamoxifen developed tumors after 15 weeks”.
